From patent publication US11479802B2, “Assays for screening activity of modulators of members of the hydroxy steroid (17-beta) dehydrogenase (HSD17B) family” (Regeneron Pharmaceuticals, Inc., priority 2017, dated 2022)
Structures can show the parent of a compound that is named as a salt.

Biological target: T1, human HSD17B13 (Homo sapiens, UniProt Q7Z5P4)
T1 sequence (Q7Z5P4 20-300): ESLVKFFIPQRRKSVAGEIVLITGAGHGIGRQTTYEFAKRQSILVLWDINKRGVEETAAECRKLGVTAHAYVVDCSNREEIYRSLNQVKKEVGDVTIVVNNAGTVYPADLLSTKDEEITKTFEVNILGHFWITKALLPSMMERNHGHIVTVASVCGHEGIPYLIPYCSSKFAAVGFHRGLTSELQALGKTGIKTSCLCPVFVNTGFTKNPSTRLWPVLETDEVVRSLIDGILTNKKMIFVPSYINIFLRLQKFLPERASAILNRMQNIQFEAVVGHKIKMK
Assay: Substrate screening of steroid and bioactive lipid libraries against purified recombinant HSD17B13 (NADH-linked luciferase assay)
Type: biochemical
Settings: for HSD17B13 Enzymatic Activity Relative Light Units: 500 μM NAD+, 100 ng enzyme, 3 hours at 23° C.; for HSD17B13 Enzymatic Activity Percent Estradiol Control: normalized to 50 μM estradiol after subtraction of 5% DMSO
Experimental: To understand the functional consequences of premature truncation of the HSD17B13 protein due to rs72613567:TA (the associated variant, rs72613567, is an insertion of an adenine adjacent to the donor splice site of exon six (TA allele)), the enzymatic activity of isoforms A and D was evaluated in vitro using recombinant protein and nicotinamide […] dinucleotide as cofactor. Reactions were performed in a final volume of 40 μl of assay buffer (0.2 M Tris-HCl, pH 7.5) which contained 500 μM NAD^+, 5 μM bioactive lipid or 50 μM steroid (all in a final concentration of 5% DMSO), and 100 ng of recombinant human HSD17B13. Reactions were incubated for 3 hours, at 23° C., after which an equal volume detection reagent was added. Following a 1 hour incubation at 23° C., the relative light units (RLUs) were measured on an Envision Plate Reader (Perkin Elmer). Raw RLU values were normalized as percent of control (50 μM estradiol) following subtraction of negative control (5% DMSO) using the following formula: Percent of control (POC)=100×(Sample (RLU)−Negative CTRLaverage)/(Positive CTRLaverage−Negative CTRLaverage).

[1] = Bioactive Lipid Library, 5 μM bioactive lipid (Estradiol Control 50 μM)
[2] = Bioactive Lipid Library, 5 μM bioactive lipid

Compound: CC/C=C\C/C=C\C/C=C\C/C=C\C=C\C(O)CCCC(=O)O (racemic) [(±)5-HEPE]
- HSD17B13 Enzymatic Activity Relative Light Units [1]: 344480 RLU
- HSD17B13 Enzymatic Activity Percent Estradiol Control [2]: 4.85%

Compound: CCCCC[C@H](O)/C=C/C=C\C=C\[C@@H](O)C/C=C\CCCC(=O)O [8(S),15(S)-DiHETE]
- HSD17B13 Enzymatic Activity Relative Light Units [1]: 410440 RLU
- HSD17B13 Enzymatic Activity Percent Estradiol Control [2]: 9.19%

Compound: CC1(C)[C@@H]2C[C@H](NS(=O)(=O)c3ccc(I)cc3)[C@@H](C/C=C\CCCC(=O)O)[C@H]1C2 [I-SAP]
- HSD17B13 Enzymatic Activity Relative Light Units [1]: 245520 RLU
- HSD17B13 Enzymatic Activity Percent Estradiol Control [2]: −2.97%

Compound: CCCCC/C=C\C=C\[C@@H](O)CCCCCCCCCC(=O)O [11(S)-HEDE]
- HSD17B13 Enzymatic Activity Relative Light Units [1]: 1056440 RLU
- HSD17B13 Enzymatic Activity Percent Estradiol Control [2]: 57.23%

Compound: CCCCC(C)(C)[C@H](O)/C=C/[C@H]1[C@H](O)CC(=O)[C@@H]1C/C=C\CCCC(=O)Oc1ccc(NC(=O)c2ccc(NC(C)=O)cc2)cc1 [16,16-dimethyl Prostaglandin E2 p-(p-acetamidobenzamido) phenyl ester]
- HSD17B13 Enzymatic Activity Relative Light Units [1]: 322280 RLU
- HSD17B13 Enzymatic Activity Percent Estradiol Control [2]: 3.10%

Compound: CC/C=C\C/C=C\C/C=C\C=C\C(O)C/C=C\C/C=C\CCC(=O)O (racemic) [(±)10-HDHA]
- HSD17B13 Enzymatic Activity Relative Light Units [1]: 801680 RLU
- HSD17B13 Enzymatic Activity Percent Estradiol Control [2]: 38.28%

Compound: CCCCC[C@H](O)/C=C/[C@@H]1[C@@H](CC(=O)CCC(=O)O)[C@@H](O)C[C@H]1O [2,3-dinor-6-keto Prostaglandin F1α (sodium salt)]
- HSD17B13 Enzymatic Activity Relative Light Units [1]: 341800 RLU
- HSD17B13 Enzymatic Activity Percent Estradiol Control [2]: 4.64%

Compound: Androstanolone acetate
- HSD17B13 Enzymatic Activity Relative Light Units (Steroid Library, 50 μM steroid): 200560 RLU
- HSD17B13 Enzymatic Activity Percent Estradiol Control (Steroid Library, 50 μM steroid): 0.70%

Compound: C[C@]12CCC(=O)C[C@@H]1CC[C@@H]1[C@@H]2CC[C@]2(C)[C@@H](OC(=O)c3ccccc3)CC[C@@H]12 [Androstanolone 17-benzoate]
- HSD17B13 Enzymatic Activity Relative Light Units (Steroid Library, 50 μM steroid): 217200 RLU
- HSD17B13 Enzymatic Activity Percent Estradiol Control (Steroid Library, 50 μM steroid): 0.99%

Compound: C[C@]12C[C@H](O)[C@H]3[C@@H](CCC4=CC(=O)CC[C@@]43C)[C@@H]1CC[C@@H]2C(=O)CO [Corticosterone]
- HSD17B13 Enzymatic Activity Relative Light Units (Steroid Library, 50 μM steroid): 215320 RLU
- HSD17B13 Enzymatic Activity Percent Estradiol Control (Steroid Library, 50 μM steroid): 0.96%

Compound: CCCCC[C@H](O)/C=C/[C@@H]1[C@@H](C/C=C\CCCC(=O)O)[C@@H]2C[C@H]1OO2 [Prostaglandin H2]
- HSD17B13 Enzymatic Activity Relative Light Units [1]: 166640 RLU
- HSD17B13 Enzymatic Activity Percent Estradiol Control [2]: −9.20%

Compound: CCCCC[C@H](O)/C=C/[C@@H]1[C@H]2C/C(=C/CCCC(=O)O)C[C@H]2C[C@H]1O [Carbaprostacyclin]
- HSD17B13 Enzymatic Activity Relative Light Units [1]: 380280 RLU
- HSD17B13 Enzymatic Activity Percent Estradiol Control [2]: 7.68%

Compound: CCCCC/C=C\C\C=C/C=C/C=C/[C@H](O)[C@@H](O)CCCC(=O)O [5(S),6(S)-DiHETE]
- HSD17B13 Enzymatic Activity Relative Light Units [1]: 309080 RLU
- HSD17B13 Enzymatic Activity Percent Estradiol Control [2]: 4.07%

Compound: CCCCC/C=C\C\C=C/C=C/C=C/[C@@H]1O[C@H]1CCCC(=O)OC [Leukotriene A4 methyl ester]
- HSD17B13 Enzymatic Activity Relative Light Units [1]: 463120 RLU
- HSD17B13 Enzymatic Activity Percent Estradiol Control [2]: 14.23%

Compound: O=P(O)(O)OC1[C@@H](O)[C@@H](O)C(O)[C@H](O)[C@H]1O (stereo partly drawn) [D-myo-Inositol-4-phosphate (ammonium salt)]
- HSD17B13 Enzymatic Activity Relative Light Units [1]: 408880 RLU
- HSD17B13 Enzymatic Activity Percent Estradiol Control [2]: 6.33%

Compound: CC/C=C\CC1OC1C/C=C\C/C=C\C/C=C\CCCC(=O)O (racemic) [(±)14(15)-EpETE]
- HSD17B13 Enzymatic Activity Relative Light Units [1]: 306600 RLU
- HSD17B13 Enzymatic Activity Percent Estradiol Control [2]: 1.86%

Compound: CCCCC/C=C\C/C=C\C[C@H](O)/C=C/C=C\CCCC(=O)O [9(S)-HETE]
- HSD17B13 Enzymatic Activity Relative Light Units [1]: 497640 RLU
- HSD17B13 Enzymatic Activity Percent Estradiol Control [2]: 15.68%

Compound: CCCCCC(=O)CC[C@@H]1[C@H](C/C=C\CCCC(=O)O)[C@@H](O)C[C@H]1O [8-iso-13,14-dihydro-15-keto Prostaglandin F2α]
- HSD17B13 Enzymatic Activity Relative Light Units [1]: 212520 RLU
- HSD17B13 Enzymatic Activity Percent Estradiol Control [2]: −5.58%

Compound: C[C@@H](O)CCC[C@H](O)/C=C/[C@H]1[C@H](O)CC(=O)[C@@H]1CCCCCCC(=O)O [19(R)-hydroxy Prostaglandin E1]
- HSD17B13 Enzymatic Activity Relative Light Units [1]: 333160 RLU
- HSD17B13 Enzymatic Activity Percent Estradiol Control [2]: 3.96%

Compound: O=C(O)CCCCC(=O)CC[C@@H]1[C@@H](CCC(=O)O)[C@@H](O)C[C@H]1O [tetranor-PGFM]
- HSD17B13 Enzymatic Activity Relative Light Units [1]: 367640 RLU
- HSD17B13 Enzymatic Activity Percent Estradiol Control [2]: 6.68%

Compound: CC/C=C/C[C@H](O)/C=C/[C@@H]1[C@@H](C/C=C\CCCC(=O)O)[C@@H](O)C[C@H]1O (relative stereo) [17-trans Prostaglandin F3α]
- HSD17B13 Enzymatic Activity Relative Light Units [1]: 371720 RLU
- HSD17B13 Enzymatic Activity Percent Estradiol Control [2]: 7.01%

Compound: CCCCC/C=C\C=C\[C@@H](O)CCCCCCCC(=O)O [9(S)-HODE]
- HSD17B13 Enzymatic Activity Relative Light Units [1]: 539560 RLU
- HSD17B13 Enzymatic Activity Percent Estradiol Control [2]: 18.79%

Compound: CCCCC/C=C\CC(/C=C/C=C\C/C=C\CCCC(=O)O)OO (racemic) [(±)12-HpETE]
- HSD17B13 Enzymatic Activity Relative Light Units [1]: 165800 RLU
- HSD17B13 Enzymatic Activity Percent Estradiol Control [2]: −9.27%

Compound: CCCCC[C@H](O)/C=C/C=C\C=C\C=C\[C@@H](O)[C@@H](O)CCCC(=O)O [Lipoxin A4]
- HSD17B13 Enzymatic Activity Relative Light Units [1]: 352680 RLU
- HSD17B13 Enzymatic Activity Percent Estradiol Control [2]: 2.09%

Compound: CC/C=C\C[C@H](O)/C=C/C=C\C/C=C\C/C=C\CCCC(=O)O [15(S)-HEPE]
- HSD17B13 Enzymatic Activity Relative Light Units [1]: 505240 RLU
- HSD17B13 Enzymatic Activity Percent Estradiol Control [2]: 16.24%

Compound: CC/C=C\C[C@H](O)/C=C/[C@H]1C(=O)C[C@H](O)[C@@H]1C/C=C\CCCC(=O)O [Prostaglandin D3]
- HSD17B13 Enzymatic Activity Relative Light Units [1]: 298960 RLU
- HSD17B13 Enzymatic Activity Percent Estradiol Control [2]: 1.25%

Compound: C[C@@H](O)CCC[C@H](O)/C=C/[C@H]1[C@H](O)CC(=O)[C@@H]1C/C=C\CCCC(=O)O [19(R)-hydroxy Prostaglandin E2]
- HSD17B13 Enzymatic Activity Relative Light Units [1]: 347280 RLU
- HSD17B13 Enzymatic Activity Percent Estradiol Control [2]: 5.07%

Compound: CCCCCC1OC1C/C=C\C/C=C\C/C=C\CCCC(=O)O (racemic) [(±)14(15)-EET]
- HSD17B13 Enzymatic Activity Relative Light Units [1]: 305720 RLU
- HSD17B13 Enzymatic Activity Percent Estradiol Control [2]: 1.41%

Compound: C[C@]12CCC(=O)C[C@@H]1CC[C@@H]1[C@@H]2CC[C@]2(C)C(=O)CC[C@@H]12 [5a-androstanedione]
- HSD17B13 Enzymatic Activity Relative Light Units (Steroid Library, 50 μM steroid): 181840 RLU
- HSD17B13 Enzymatic Activity Percent Estradiol Control (Steroid Library, 50 μM steroid): 0.37%

Compound: CCCCC/C=C\C/C=C\C/C=C\C=C\[C@@H](O)CCCC(=O)O [5(S)-HETE]
- HSD17B13 Enzymatic Activity Relative Light Units [1]: 430800 RLU
- HSD17B13 Enzymatic Activity Percent Estradiol Control [2]: 10.71%

Compound: CCCCCC(O)C=CC1OC(=O)CC(O)C1CC=CCC(=O)O (stereo not drawn) [11-dehydro-2,3-dinor Thromboxane B2]
- HSD17B13 Enzymatic Activity Relative Light Units [1]: 183120 RLU
- HSD17B13 Enzymatic Activity Percent Estradiol Control [2]: −7.90%

Compound: CCCCC[C@H](O)C/C=C1/C(=O)C=C[C@@H]1C/C=C\CCCC(=O)O [Δ12-Prostaglandin J2]
- HSD17B13 Enzymatic Activity Relative Light Units [1]: 343320 RLU
- HSD17B13 Enzymatic Activity Percent Estradiol Control [2]: 4.76%

Compound: CC/C=C\C[C@H](O)/C=C/[C@H]1OC(O)C[C@H](O)[C@@H]1C/C=C\CCCC(=O)O (stereo partly drawn) [Thromboxane B3]
- HSD17B13 Enzymatic Activity Relative Light Units [1]: 348080 RLU
- HSD17B13 Enzymatic Activity Percent Estradiol Control [2]: 5.14%

Compound: Ptdlns-(3,4)-P2 (1,2-dipalmitoyl) (sodium salt)
- HSD17B13 Enzymatic Activity Relative Light Units [1]: 351680 RLU
- HSD17B13 Enzymatic Activity Percent Estradiol Control [2]: 2.01%

Compound: CCCCC/C=C\C/C=C\CC(O)/C=C/C=C\CCCC(=O)O (racemic) [(±)9-HETE]
- HSD17B13 Enzymatic Activity Relative Light Units [1]: 1110120 RLU
- HSD17B13 Enzymatic Activity Percent Estradiol Control [2]: 61.22%

Compound: C[C@]12CCC(=O)C=C1CC[C@@H]1[C@@H]2[C@@H](O)C[C@@]2(C)[C@H]1CC[C@]2(O)C(=O)CO [Cortisol]
- HSD17B13 Enzymatic Activity Relative Light Units (Steroid Library, 50 μM steroid): 40080 RLU
- HSD17B13 Enzymatic Activity Percent Estradiol Control (Steroid Library, 50 μM steroid): −2.10%

Compound: CC/C=C\C[C@H](O)/C=C/[C@H]1C=CC(=O)[C@@H]1C/C=C\CCCC(=O)O [Prostaglandin A3]
- HSD17B13 Enzymatic Activity Relative Light Units [1]: 227000 RLU
- HSD17B13 Enzymatic Activity Percent Estradiol Control [2]: −4.43%

Compound: O=P(O)(O)O[C@@H]1[C@@H](OP(=O)(O)O)[C@@H](OP(=O)(O)O)[C@@H](O)[C@H](O)[C@H]1OP(=O)(O)O [D-myo-Inositol-2,3,4,5-tetraphosphate (ammonium salt)]
- HSD17B13 Enzymatic Activity Relative Light Units [1]: 372320 RLU
- HSD17B13 Enzymatic Activity Percent Estradiol Control [2]: 3.57%

Compound: C[C@@H](O)CCC[C@H](O)/C=C/[C@H]1C=CC(=O)[C@@H]1C/C=C\CCCC(=O)O [19(R)-hydroxy Prostaglandin A2]
- HSD17B13 Enzymatic Activity Relative Light Units [1]: 323320 RLU
- HSD17B13 Enzymatic Activity Percent Estradiol Control [2]: 3.18%
